The structures appear in SMILES notation. In brackets after ≈: the same amount, converted by molar mass.

The record followed here is patent publication US20090082337A1, “Compositions Comprising Quinolone and Methods for Treating or Controlling Infections” (priority 2007, published 2009).

This assay deals with Ofloxacin-resistant Enterobacteriaceae. Put plainly: organism not typed. Type of assay: cell-based.

Take `N[C@@H]1CCCCN(c2c(F)cc3c(=O)c(C(=O)O)cn(C4CC4)c3c2Cl)C1` [Compound Having Formula IV]: the MIC90 – broadly, the lowest concentration that inhibits either 90% of growth or 90% of the strains tested, depending on the study – amounted to 16 µg/mL.

Regarding `CCn1cc(C(=O)O)c(=O)c2cc(F)c(N3CCNCC3)cc21` [Norfloxacin], the MIC90 turned out to be 128 µg/mL (≈ 401 µM).

`CC1COc2c(N3CCN(C)CC3)c(F)cc3c(=O)c(C(=O)O)cn1c23` (stereo not drawn) [Ofloxacin, ofloxacin] showed an MIC90 of 64 µg/mL (≈ 177 µM).
